These results are taken from patent US20240239806A1, “COMPOUNDS, COMPOSITIONS AND METHODS OF TREATING DISORDERS” (Chengdu Anticancer Bioscience, Ltd., priority 2021, published 2024).

A word on the EC50: it is the concentration that produces a half-maximal response.

One test deals with RPEMYC^H2B-GFP cells. The test can be described thus: Phenotypic screening assay (mitotic arrest, polyploidy). As to conditions: 1 nM to 30 μM. Type of test: cell-based. A digest of the protocol: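 RPE cells expressing MYC and H2B-EGFP treated with compound at 1 nM–30 μM; mitotic index scored at 24 h and polyploidy (DNA content) at 48 h by automated imaging, with reads at 24, 48 or 72 h. Hits show transient mitotic arrest followed by polyploid accumulation.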
In the case of `COC(=O)c1cc(Oc2ncnc3ccsc23)cc(C(=O)OC)c1` [Compound 39, dimethyl 5-(thieno[3,2-d]pyrimidin-4-yloxy)isophthalate], the “Min. Effective conc. for Polyploidy (≥5%)” value was “B (a value greater than 1.00 μM and less than or equal to 10.0 μM)”; the “Mitotic Arrest (≥5%)” value is “B (a value greater than 1.00 μM and less than or equal to 10.0 μM)”; the “Proliferative arrest (>50%)” value is “B (a value greater than 1.00 μM and less than or equal to 10.0 μM)”.

The test is the same for the next values; noted with them: 1 nM to 30 μM, listed as 33.
Turning to `COC(=O)c1cc(Oc2ncnc3ccsc23)cc(C(=O)OC)c1` [Compound 39, dimethyl 5-(thieno[3,2-d]pyrimidin-4-yloxy)isophthalate], the “Along with Cell Death” value is “B (a value greater than 1.00 μM and less than or equal to 10.0 μM)”.

The same test, now with this note: 1 nM to 30 μM, read-out: Min. Effective conc. for Polyploidy (≥5%).
In the case of `COC(=O)c1cc(Oc2ncnc3ccsc23)cc(C(=O)OC)c1` [Compound 39, dimethyl 5-(thieno[3,2-d]pyrimidin-4-yloxy)isophthalate], the minimal effective concentration is 0.001 to 1 µM.

The test is the same for the next values; noted with them: 1 nM to 30 μM, read-out: Mitotic Arrest (≥5%).
For the compound `COC(=O)c1cc(Oc2ncnc3ccsc23)cc(C(=O)OC)c1` [Compound 39, dimethyl 5-(thieno[3,2-d]pyrimidin-4-yloxy)isophthalate], the minimal effective concentration lay in the range of 0.001 to 1 µM.

The same test, now with this note: 1 nM to 30 μM, read-out: Proliferative arrest (>50%).
As for `COC(=O)c1cc(Oc2ncnc3ccsc23)cc(C(=O)OC)c1` [Compound 39, dimethyl 5-(thieno[3,2-d]pyrimidin-4-yloxy)isophthalate], the IC50 lay in the range of 1 to 1000 nM.

The next test relates to HCT116. Kind of test: MECP in cancer cell line. Type of test: cell-based. As to conditions: Homo sapiens, HCT-116. A digest of the protocol:
(§1)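 Potency reported in bins: A 1 nM-1.0 μM, B to 10.0 μM, C to 30.0 μM, D above 30.0 μM. Compounds (1 nM-30 μM) applied to cells in DMEM/5% FBS; imaging-based readout at 24-72 h of mitotic index (raised at 24 h) and polyploidy (48 h), marking cytokinetic failure.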
Compound `COC(=O)c1cc(Oc2ncnc3ccsc23)cc(C(=O)OC)c1` [Compound 39, dimethyl 5-(thieno[3,2-d]pyrimidin-4-yloxy)isophthalate] yielded a minimal effective concentration of 0.001 to 1 µM.

The test system of the next test is Hela. The test can be described thus: MECP in cancer cell line. As to conditions: Homo sapiens. It is filed as cell-based. In outline: as §1
In turn, `COC(=O)c1cc(Oc2ncnc3ccsc23)cc(C(=O)OC)c1` [Compound 39, dimethyl 5-(thieno[3,2-d]pyrimidin-4-yloxy)isophthalate] showed a minimal effective concentration of 0.001 to 1 µM.

The test system of another test is MDA-MB-231. The test can be described thus: MECP in cancer cell line. Type of test: cell-based. As to conditions: Homo sapiens. In outline:
as §1
`COC(=O)c1cc(Oc2ncnc3ccsc23)cc(C(=O)OC)c1` [Compound 39, dimethyl 5-(thieno[3,2-d]pyrimidin-4-yloxy)isophthalate] showed a minimal effective concentration of 0.001 to 1 µM.

A further test concerns NCI-H460. The test can be described thus: MECP in cancer cell line. It is filed as cell-based. As to conditions: Homo sapiens. A digest of the protocol: as §1
With `COC(=O)c1cc(Oc2ncnc3ccsc23)cc(C(=O)OC)c1` [Compound 39, dimethyl 5-(thieno[3,2-d]pyrimidin-4-yloxy)isophthalate], the minimal effective concentration was 1 to 10 µM.

In a further test the test system is NCI-H596. Kind of test: MECP in cancer cell line. Type of test: cell-based. As to conditions: Homo sapiens. In outline:
as §1
Compound `COC(=O)c1cc(Oc2ncnc3ccsc23)cc(C(=O)OC)c1` [Compound 39, dimethyl 5-(thieno[3,2-d]pyrimidin-4-yloxy)isophthalate] had a minimal effective concentration of 0.001 to 1 µM.

The next test deals with T2 HCC. Kind of test: MECP in cancer cell line. As to conditions: Mus musculus. It is filed as cell-based. A digest of the protocol: as §1
`COC(=O)c1cc(Oc2ncnc3ccsc23)cc(C(=O)OC)c1` [Compound 39, dimethyl 5-(thieno[3,2-d]pyrimidin-4-yloxy)isophthalate] came in with a minimal effective concentration of 0.001 to 1 µM.

In another test the test system is NCI-H23. Kind of test: MECP in cancer cell line. As to conditions: Homo sapiens. Type of test: cell-based. In outline: as §1
Turning to `COC(=O)c1cc(Oc2ncnc3ccsc23)cc(C(=O)OC)c1` [Compound 39, dimethyl 5-(thieno[3,2-d]pyrimidin-4-yloxy)isophthalate], the minimal effective concentration was in the range of 0.001 to 1 µM.

For the next test, the system named is HCT116. The test can be described thus: MTT assay of cellular proliferation. Type of test: cell-based. As to conditions: Homo sapiens, HCT-116, 50% inhibition of cellular proliferation. In outline: (§2)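 EC50 for 50% growth inhibition came from MTT formazan absorbance at 570 nm after 3–4 h dye incubation. Beforehand, cells grown to 20–30% confluence (15–24 h) in DMEM/5% FBS were treated with compound over 1 nM–30 μM.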
A general note: Tetrazolium assays rely on reduction of a dye to a coloured formazan, in cell work by metabolically active cells.
In the case of `COC(=O)c1cc(Oc2ncnc3ccsc23)cc(C(=O)OC)c1` [Compound 39, dimethyl 5-(thieno[3,2-d]pyrimidin-4-yloxy)isophthalate], the EC50 lay within 1 to 1000 nM.

The next test has as its system Hela. Kind of test: MTT assay of cellular proliferation. It is filed as cell-based. As to conditions: Homo sapiens, 50% inhibition of cellular proliferation. A digest of the protocol: as §2
`COC(=O)c1cc(Oc2ncnc3ccsc23)cc(C(=O)OC)c1` [Compound 39, dimethyl 5-(thieno[3,2-d]pyrimidin-4-yloxy)isophthalate] had an EC50 of 1 to 1000 nM.

The subject of the next test is MDA-MB-231. Kind of test: MTT assay of cellular proliferation. It is filed as cell-based. As to conditions: Homo sapiens; MDA-MB-231, MTT, 50% inhibition of cellular proliferation. A digest of the protocol: as §2
`COC(=O)c1cc(Oc2ncnc3ccsc23)cc(C(=O)OC)c1` [Compound 39, dimethyl 5-(thieno[3,2-d]pyrimidin-4-yloxy)isophthalate] registered a 50% effective concentration (EC50) of 1 to 1000 nM.

Another test concerns NCI-H23. The test can be described thus: MTT assay of cellular proliferation. Type of test: cell-based. As to conditions: Homo sapiens, 50% inhibition of cellular proliferation. In outline:
as §2
`COC(=O)c1cc(Oc2ncnc3ccsc23)cc(C(=O)OC)c1` [Compound 39, dimethyl 5-(thieno[3,2-d]pyrimidin-4-yloxy)isophthalate]: the EC50 was in the range of 1 to 1000 nM.

A further test has as its system NCI-H460. Kind of test: MTT assay of cellular proliferation. It is filed as cell-based. As to conditions: Homo sapiens, 50% inhibition of cellular proliferation. In outline:
as §2
`COC(=O)c1cc(Oc2ncnc3ccsc23)cc(C(=O)OC)c1` [Compound 39, dimethyl 5-(thieno[3,2-d]pyrimidin-4-yloxy)isophthalate] registered an EC50 greater than 30 µM.

The next test relates to NCI-H596. Kind of test: MTT assay of cellular proliferation. It is filed as cell-based. As to conditions: Homo sapiens, 50% inhibition of cellular proliferation. A digest of the protocol:
as §2
`COC(=O)c1cc(Oc2ncnc3ccsc23)cc(C(=O)OC)c1` [Compound 39, dimethyl 5-(thieno[3,2-d]pyrimidin-4-yloxy)isophthalate] returned a half-maximal effective concentration (EC50) greater than 30 µM.

In the next test the test system is T2 HCC. The test can be described thus: MTT assay of cellular proliferation. Type of test: cell-based. As to conditions: Mus musculus, 50% inhibition of cellular proliferation. In outline:
as §2
For `COC(=O)c1cc(Oc2ncnc3ccsc23)cc(C(=O)OC)c1` [Compound 39, dimethyl 5-(thieno[3,2-d]pyrimidin-4-yloxy)isophthalate], the concentration giving a half-maximal response (EC50) fell in the range of 1 to 1000 nM.

Another test deals with T98G. The test can be described thus: MTT assay of cellular proliferation. It is filed as cell-based. As to conditions: Homo sapiens, 50% inhibition of cellular proliferation. A digest of the protocol: as §2
`COC(=O)c1cc(Oc2ncnc3ccsc23)cc(C(=O)OC)c1` [Compound 39, dimethyl 5-(thieno[3,2-d]pyrimidin-4-yloxy)isophthalate] returned an EC50 of 1 to 1000 nM.
